The results in this text go back to ChEMBL document CHEMBL5344458, “AI in Pharma: Transforming Drug Discovery and Strategic Management with MYC-Modulating Compounds and BET Protein Inhibitors” (ACS Med Chem Lett, 2024).

Each structure is given as a SMILES string.

The nature of series [1]: Half life in Sprague-Dawley rat at 1 mg/kg,iv administration by LC-MS/MS analysis. The format is ADME, organism-based. Conditions: in vivo.
Series [2] can be described thus: Oral bioavailability in Sprague-Dawley rat at 5 mg/kg administration by LC-MS/MS analysis. The class given is ADME, organism-based. Conditions: in vivo.

With `CNC(=O)c1[nH]c(C(=O)NC2CCC2)cc1OC(C)c1ccc(Cl)cc1` (stereo not drawn), the half-life in series [1] was 24 min. In addition, the bioavailability in series [2] is 47%.

`CNC(=O)c1[nH]c(C(=O)NC2CCC2)cc1OC(C)c1ccccc1` (stereo not drawn): the half-life in series [1] was 54 min. The compound further had a bioavailability in series [2] of 66%. For `CNC(=O)c1[nH]c(C(=O)NC2CC2)cc1O[C@@H](C)c1ccccc1F`, the bioavailability in series [2] was determined as 70%. In the case of `CCNC(=O)c1cc(OC(C)c2ccccc2F)c(C(=O)NC)[nH]1` (stereo not drawn), in series [1], the half-life was 24 min. The compound further registered a bioavailability in series [2] of 46%.

Compound `CNC(=O)c1[nH]c(C(=O)NC2COC2)cc1OC(C)c1ccc(Cl)cc1` (stereo not drawn) had a half-life in series [1] of 36 min. Further, the bioavailability in series [2] was found to be 15%. Regarding `CCNC(=O)c1cc(OC(C)c2ccc(Cl)cc2)c(C(=O)NC)[nH]1` (stereo not drawn), the half-life in series [1] is 66 min. Also, the bioavailability in series [2] turned out to be 30%. For `CNC(=O)c1[nH]c(C(=O)NC2CCC2)cc1OC(C)c1ccccc1F` (stereo not drawn) the same measures were 30 min and 58%.

Turning to `CNC(=O)c1[nH]c(C(=O)N[C@H]2CC[C@H](O)CC2)cc1OC(C)c1ccc(Cl)cc1F` (stereo partly drawn), the half-life in series [1] is 84 min. Besides, in series [2], the bioavailability amounted to 66%. For the compound `CCNC(=O)c1cc(OC(C)c2ccc(Cl)cc2F)c(C(=O)NC)[nH]1` (stereo not drawn), in series [1], the half-life was 18 min. Moreover, the bioavailability in series [2] was 69%.

`CNC(=O)c1[nH]c(C(=O)NC2CCC2)cc1OC(C)c1ccc(Cl)cc1F` (single isomer, unassigned): the bioavailability in series [2] was found to be 65%.
